From ChEMBL document CHEMBL1201862, “PubChem BioAssay data set” (2004)
The source made the active and inactive calls.

How the values were obtained:
[1] = system: INS1; test: INS-1E survival protection against cytokine death – cell-based, luminescence, retest, dose response (AID 449756); format: functional; settings: Rattus norvegicus;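 note: cell death triggered by IL-1 beta plus TNF-alpha plus IFN-gamma mixture; protective hits raise ATP signal compared with cytokine alone wells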
[2] = alpha-synuclein stem-loop luciferase translation blockers – H4 neuroglioma cells, luminescence, confirmation (AID 1988); format: functional, cell-based
[3] = target: T1, Caspase-3 (Homo sapiens, UniProt P42574); format: functional;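 note: Dose-response selectivity test against caspase-3 for candidate inhibitors of sentrin-specific proteases (SENPs)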
T1 sequence (P42574 whole entry): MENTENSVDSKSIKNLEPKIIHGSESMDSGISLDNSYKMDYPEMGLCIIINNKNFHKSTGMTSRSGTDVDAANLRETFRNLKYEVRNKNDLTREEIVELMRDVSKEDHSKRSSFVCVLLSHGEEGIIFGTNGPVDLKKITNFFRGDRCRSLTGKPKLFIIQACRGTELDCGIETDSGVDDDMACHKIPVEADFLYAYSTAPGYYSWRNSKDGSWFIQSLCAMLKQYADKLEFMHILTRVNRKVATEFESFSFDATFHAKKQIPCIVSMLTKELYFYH

[4] = target: T2, Sentrin-specific protease 7 (Homo sapiens, UniProt Q9BQF6); format: functional;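 note: Luminescence-based dose-response confirmation of ultra-high-throughput screening hits, measuring inhibition of SENP7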
T2 sequence (Q9BQF6 whole entry): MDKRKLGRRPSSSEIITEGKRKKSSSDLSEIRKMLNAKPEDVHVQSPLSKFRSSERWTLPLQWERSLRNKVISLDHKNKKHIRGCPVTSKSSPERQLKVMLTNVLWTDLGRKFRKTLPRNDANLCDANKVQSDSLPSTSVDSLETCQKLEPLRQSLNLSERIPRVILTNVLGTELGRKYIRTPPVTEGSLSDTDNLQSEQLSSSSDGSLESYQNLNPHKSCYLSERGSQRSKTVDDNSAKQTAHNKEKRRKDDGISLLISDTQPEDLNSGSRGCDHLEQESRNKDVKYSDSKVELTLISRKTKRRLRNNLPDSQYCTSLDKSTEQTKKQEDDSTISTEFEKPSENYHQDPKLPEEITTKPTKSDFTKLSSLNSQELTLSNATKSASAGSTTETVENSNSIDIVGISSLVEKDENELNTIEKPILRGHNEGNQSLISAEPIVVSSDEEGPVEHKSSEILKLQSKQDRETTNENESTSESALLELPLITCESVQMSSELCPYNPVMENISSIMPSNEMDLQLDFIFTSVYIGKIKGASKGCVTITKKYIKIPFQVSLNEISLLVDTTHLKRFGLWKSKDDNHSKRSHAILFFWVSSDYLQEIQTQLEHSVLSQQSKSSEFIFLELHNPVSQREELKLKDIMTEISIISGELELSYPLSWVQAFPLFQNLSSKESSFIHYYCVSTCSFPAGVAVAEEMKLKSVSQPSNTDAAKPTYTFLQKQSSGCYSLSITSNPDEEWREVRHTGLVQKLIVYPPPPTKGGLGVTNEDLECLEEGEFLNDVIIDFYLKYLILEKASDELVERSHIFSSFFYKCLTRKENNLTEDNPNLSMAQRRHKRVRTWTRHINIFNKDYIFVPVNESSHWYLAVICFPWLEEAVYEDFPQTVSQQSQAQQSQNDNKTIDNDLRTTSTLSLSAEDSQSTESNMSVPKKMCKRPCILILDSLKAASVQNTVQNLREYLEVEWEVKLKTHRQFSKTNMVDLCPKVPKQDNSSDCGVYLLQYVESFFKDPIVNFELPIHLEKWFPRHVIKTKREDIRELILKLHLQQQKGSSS

[5] = target: Nonstructural protein 1 (Influenza A virus, UniProt Q194T2); format: functional, Influenza A virus (A/California/07/2009(H1N1))
[6] = target: T3, Sentrin-specific protease 6 (Homo sapiens, UniProt Q9GZR1); format: functional;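 note: Luminescence-based dose-response confirmatory assay of SENP6 inhibition, following up an ultra-high-throughput screen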
T3 sequence (Q9GZR1 whole entry): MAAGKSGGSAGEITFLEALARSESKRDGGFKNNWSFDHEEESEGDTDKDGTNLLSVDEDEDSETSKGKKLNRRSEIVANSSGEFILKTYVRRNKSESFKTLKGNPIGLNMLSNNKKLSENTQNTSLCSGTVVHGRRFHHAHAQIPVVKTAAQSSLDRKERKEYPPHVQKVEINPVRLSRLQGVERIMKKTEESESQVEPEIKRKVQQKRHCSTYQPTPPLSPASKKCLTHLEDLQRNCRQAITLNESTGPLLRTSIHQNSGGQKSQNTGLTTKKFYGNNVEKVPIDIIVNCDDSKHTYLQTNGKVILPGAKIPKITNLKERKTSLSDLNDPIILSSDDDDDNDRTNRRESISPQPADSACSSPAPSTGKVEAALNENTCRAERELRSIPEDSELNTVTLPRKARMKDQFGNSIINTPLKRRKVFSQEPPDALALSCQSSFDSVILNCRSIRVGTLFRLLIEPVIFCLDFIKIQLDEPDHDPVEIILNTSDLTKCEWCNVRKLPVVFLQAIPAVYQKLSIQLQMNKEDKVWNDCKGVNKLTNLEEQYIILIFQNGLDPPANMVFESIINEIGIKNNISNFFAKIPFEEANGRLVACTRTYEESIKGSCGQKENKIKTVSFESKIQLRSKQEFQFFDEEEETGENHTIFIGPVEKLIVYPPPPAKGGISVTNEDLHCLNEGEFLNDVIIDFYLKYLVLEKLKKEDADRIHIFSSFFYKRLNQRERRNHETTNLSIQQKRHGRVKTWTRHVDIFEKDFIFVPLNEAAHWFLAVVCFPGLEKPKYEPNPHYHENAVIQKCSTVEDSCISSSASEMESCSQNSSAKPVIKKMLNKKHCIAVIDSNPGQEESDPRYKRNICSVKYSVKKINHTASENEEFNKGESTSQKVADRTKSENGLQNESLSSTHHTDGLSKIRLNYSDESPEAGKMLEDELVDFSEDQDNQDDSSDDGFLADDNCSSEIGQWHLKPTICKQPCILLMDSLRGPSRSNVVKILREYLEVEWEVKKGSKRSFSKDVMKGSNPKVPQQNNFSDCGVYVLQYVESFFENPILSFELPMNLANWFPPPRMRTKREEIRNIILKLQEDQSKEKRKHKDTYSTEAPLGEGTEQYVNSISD

[7] = target: T4, Sentrin-specific protease 8 (Homo sapiens, UniProt Q96LD8); format: functional;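 note: luminescence read-out of SENP8 inhibition, dose-response confirmation following an ultra-high-throughput screen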
T4 sequence (Q96LD8 whole entry): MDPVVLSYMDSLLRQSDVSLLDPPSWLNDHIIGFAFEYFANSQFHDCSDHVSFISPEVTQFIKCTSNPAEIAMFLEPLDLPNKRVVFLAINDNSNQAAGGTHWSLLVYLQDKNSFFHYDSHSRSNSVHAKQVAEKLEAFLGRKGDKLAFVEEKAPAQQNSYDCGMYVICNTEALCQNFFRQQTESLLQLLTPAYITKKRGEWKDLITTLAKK

[8] = target: Tyrosyl-DNA phosphodiesterase 2 (Homo sapiens, UniProt O95551); test: potency against TDP2 phosphodiesterase activity – biochemical, epi absorbance, IC50, dose response (AID 743297)
Tyrosyl-DNA phosphodiesterase 2, sequence (O95551 whole entry): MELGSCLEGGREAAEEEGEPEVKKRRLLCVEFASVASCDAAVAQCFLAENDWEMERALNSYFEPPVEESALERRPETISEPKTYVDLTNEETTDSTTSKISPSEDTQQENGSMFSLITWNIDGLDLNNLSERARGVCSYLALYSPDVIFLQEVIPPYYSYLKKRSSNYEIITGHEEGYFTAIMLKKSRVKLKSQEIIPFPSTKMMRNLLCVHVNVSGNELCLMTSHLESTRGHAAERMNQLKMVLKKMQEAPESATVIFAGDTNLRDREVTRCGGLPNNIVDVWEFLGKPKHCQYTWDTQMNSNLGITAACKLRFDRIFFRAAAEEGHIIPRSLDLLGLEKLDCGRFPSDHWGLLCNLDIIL

Nonstructural protein 1, sequence (Q194T2 whole entry): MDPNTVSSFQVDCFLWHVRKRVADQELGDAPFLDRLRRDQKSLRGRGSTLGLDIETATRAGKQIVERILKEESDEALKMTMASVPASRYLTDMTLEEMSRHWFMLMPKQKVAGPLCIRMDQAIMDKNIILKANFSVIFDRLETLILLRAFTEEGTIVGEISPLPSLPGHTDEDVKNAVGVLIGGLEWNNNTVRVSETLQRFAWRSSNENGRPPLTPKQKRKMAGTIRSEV

CCCCCCCCCCOC(=O)Cn1c(COc2cccc(OC)c2)[n+](C)c2ccccc21
active: AC50 [1] 2.94 µM

COc1cc(OC)c(NC2=CC(=O)C(=O)c3ccccc32)cc1Cl
active: EC50 [2] 0.197 µM | IC50 [3] 12.2 µM | IC50 [4] 4.56 µM | IC50 [5] > 100 µM | IC50 [6] 2.25 µM | IC50 [7] 3.62 µM | AC50 [1] 3.57 µM

CCc1ccc(S(=O)(=O)/N=C2\C=C(Nc3cccc(C(=O)O)c3)C(=O)c3ccccc32)cc1
active: IC50 [8] 2.2 µM

COc1cc2c(cc1OC)-c1c(OC)c(OC)cc3c1C(C2)N(C)CC3 (centres undefined)
active: IC50 [3] 0.907 µM | IC50 [4] 4.63 µM | IC50 [6] 1.86 µM | IC50 [7] 5.47 µM | IC50 [8] 4.6 µM
